Experimental data from paper PMC5522529, “Mechanisms of Paradoxical Activation of AMPK by the Kinase Inhibitors SU6656 and Sorafenib” (Cell Chemical Biology, 2017).

Experiments:
Raptor = Raptor phosphorylation in HEK293 cells (western blot); type: cell-based, human; settings: 1 hr
Description: Figure 1 SU6656 Activates AMPK but Not AMPK-Related Kinases (A) HEK293 cells were incubated with the indicated concentrations of SU6656 or berberine (300 μM) for 1 hr; total AMPK activity was assayed in immunoprecipitates (top; mean ± SEM, n = 4), and phosphorylation of AMPK (Thr172), ACC (Ser80), and Raptor (Ser792) analyzed by western blotting (bottom; n = 2). (B) HEK293 cells were incubated with 100 μM SU6656 (1 hr), AMPK complexes containing α1, α2, β1, and β2 immunoprecipitated using isoform-specific antibodies, and AMPK activity measured (mean ± SEM, n = 4). (C) HeLa cells stably expressing LKB1 ([Fogarty et al., 2010]) were incubated with 100 μM SU6656 for 1 hr, AMPK or individual ARKs immunoprecipitated, and kinase assays carried out (antibodies that distinguish MARK2/MARK3 were not available, so they were assayed together). Results are means ± SEM (n = 2). In all panels, asterisks indicate significant differences from controls without SU6656. *p < 0.05, **p < 0.01, ****p < 0.0001.
SDS-PAGE was performed using precast Bis-Tris 4–12% gradient polyacrylamide gels in the MOPS buffer system (ThermoFisher Scientific). Proteins were transferred to nitrocellulose membranes using the iBlot 2 system (ThermoFisher Scientific). […] Protein concentrations were determined by Coomassie Blue binding with bovine serum albumin as standard ([Bradford, 1976]). […]

AMPK = type: cell-based, mouse; settings: SYF cells, 1 hr
Description: We next tested the effect of SU6656 in SYF cells, which are mouse embryo fibroblasts (MEFs) with null alleles for Src, Yes, and Fyn, the three Src kinases expressed in MEFs ([Klinghoffer et al., 1999]).
Top: AMPK activity (mean ± SEM, n = 4); bottom: western blots showing phosphorylation of Thr172 on AMPK, and of ERK1/2, in cells treated with DMSO (control), SU6656 (100 μM), or PP2 (100 nM) (n = 2). (B) As (A), but in SYF cells. (C) HeLa cells were transfected with DNAs encoding GFP alone, or GFP fused to WT, Y261F/Y365F (FF), or Y36F/Y261F/Y365F (FFF) mutants of LKB1; cells were treated with increasing concentrations of SU6656 for 1 hr and AMPK activity determined (mean ± SEM, n = 4). See also Figure S1. (D) HEK293 cells were transfected with DNAs encoding FLAG-tagged AMPK-α2 with or without a Y436F mutation. Cells were incubated with DMSO (control), 100 μM SU6656, 10 mM phenformin, or 10 μM A23187 for 1 hr; AMPK complexes were immunoprecipitated using anti-FLAG antibody and assayed. The top panels show kinase activities (mean ± SD, n = 3); the bottom panels show blots from the same experiment (n = 2). In all panels, asterisks indicate significant differences from DMSO controls; in (D), there were no significant differences between the WT and Y463F mutant. **p < 0.01, ****p < 0.0001. […]

human AMPK-α2 (WT) = human AMPK-α2 (WT) (Homo sapiens, UniProt P54646); test: AMPK activity of FLAG-tagged WT AMPK-α2 expressed in HEK293 cells; type: cell-based; settings: SU6656 100 μM, phenformin 10 mM, A23187 10 μM, 1 hr
Sequence of human AMPK-α2 (WT) (P54646 whole entry, the tested form may be a part): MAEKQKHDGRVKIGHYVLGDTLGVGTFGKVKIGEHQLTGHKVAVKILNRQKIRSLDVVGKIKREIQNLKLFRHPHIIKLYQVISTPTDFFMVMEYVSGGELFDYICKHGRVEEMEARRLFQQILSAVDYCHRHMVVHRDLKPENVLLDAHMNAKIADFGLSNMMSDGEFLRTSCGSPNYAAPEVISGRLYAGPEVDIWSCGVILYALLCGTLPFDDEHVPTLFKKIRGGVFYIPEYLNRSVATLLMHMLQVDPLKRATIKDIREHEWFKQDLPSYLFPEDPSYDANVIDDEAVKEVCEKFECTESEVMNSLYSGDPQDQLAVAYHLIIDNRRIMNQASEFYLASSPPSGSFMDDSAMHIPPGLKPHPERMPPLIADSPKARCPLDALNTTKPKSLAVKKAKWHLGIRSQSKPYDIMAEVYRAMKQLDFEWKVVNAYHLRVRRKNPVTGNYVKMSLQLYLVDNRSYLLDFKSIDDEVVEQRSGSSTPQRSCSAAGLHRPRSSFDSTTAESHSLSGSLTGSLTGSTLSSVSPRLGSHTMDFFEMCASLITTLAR
Sequence of human AMPK-α2 (WT) (P54619 whole entry partner, the tested form may be a part): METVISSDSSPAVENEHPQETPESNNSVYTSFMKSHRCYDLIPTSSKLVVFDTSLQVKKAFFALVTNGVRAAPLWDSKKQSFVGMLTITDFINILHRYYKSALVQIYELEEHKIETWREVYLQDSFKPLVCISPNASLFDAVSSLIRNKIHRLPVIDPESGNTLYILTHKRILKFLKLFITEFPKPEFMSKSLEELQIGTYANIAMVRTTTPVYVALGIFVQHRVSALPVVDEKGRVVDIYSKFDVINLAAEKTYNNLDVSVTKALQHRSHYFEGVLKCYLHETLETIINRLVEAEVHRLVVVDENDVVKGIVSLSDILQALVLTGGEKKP
Description: Top: AMPK activity (mean ± SEM, n = 4); bottom: western blots showing phosphorylation of Thr172 on AMPK, and of ERK1/2, in cells treated with DMSO (control), SU6656 (100 μM), or PP2 (100 nM) (n = 2). (B) As (A), but in SYF cells. (C) HeLa cells were transfected with DNAs encoding GFP alone, or GFP fused to WT, Y261F/Y365F (FF), or Y36F/Y261F/Y365F (FFF) mutants of LKB1; cells were treated with increasing concentrations of SU6656 for 1 hr and AMPK activity determined (mean ± SEM, n = 4). See also Figure S1. (D) HEK293 cells were transfected with DNAs encoding FLAG-tagged AMPK-α2 with or without a Y436F mutation. Cells were incubated with DMSO (control), 100 μM SU6656, 10 mM phenformin, or 10 μM A23187 for 1 hr; AMPK complexes were immunoprecipitated using anti-FLAG antibody and assayed. The top panels show kinase activities (mean ± SD, n = 3); the bottom panels show blots from the same experiment (n = 2). In all panels, asterisks indicate significant differences from DMSO controls; in (D), there were no significant differences between the WT and Y463F mutant. **p < 0.01, ****p < 0.0001.

purified rat liver AMPK = test: Kinase assay of purified rat liver AMPK at 2 mM ATP; type: biochemical; settings: ± 1 mM AMP
α2β2γ1 complex = target: T1, α2β2γ1 complex (Homo sapiens, UniProt P54619+P54646); test: Inactivation of full-length α2β2γ1 complex by PP2Cα; type: biochemical; settings: 5 mM ATP, AMP 2 mM, SU6656 up to 10 μM
T1 construct: bacterially expressed α2-KD or a full-length α2β2γ1 complex, both of which had been phosphorylated using CaMKK2; made in house; host or cells: bacteria
T1 sequence (P54646 whole entry): as the sequence (P54646 whole entry, the tested form may be a part) above
T1 sequence (O43741 whole entry partner): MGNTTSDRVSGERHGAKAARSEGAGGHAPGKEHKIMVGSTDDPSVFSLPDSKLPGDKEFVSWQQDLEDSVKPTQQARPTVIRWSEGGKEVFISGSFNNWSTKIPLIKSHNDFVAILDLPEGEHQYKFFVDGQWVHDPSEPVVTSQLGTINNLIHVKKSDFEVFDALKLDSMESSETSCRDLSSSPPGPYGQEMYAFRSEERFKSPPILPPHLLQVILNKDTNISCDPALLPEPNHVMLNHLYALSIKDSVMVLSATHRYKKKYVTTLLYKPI
T1 sequence (P54619 whole entry): as the sequence (P54619 whole entry partner, the tested form may be a part) above

LKB1 versus AMPK = tested on: LKB1 versus AMPK; parameters: method as in MRC Kinase Inhibitor Database; settings: ref MRC Kinase Inhibitor Database; cited from earlier work

AMPK activity in anti-FLAG immunoprecipitates (human AMPK-α2 (WT))	concentrations inhibiting both basal and AMP-stimulated activity (purified rat liver AMPK)	protection against inactivation by PP2Cα (α2β2γ1 complex)	Compound	Raptor phosphorylation (Raptor)	AMPK activity / Thr172 phosphorylation (AMPK)	potency of LKB1 inhibition relative to AMPK inhibition (LKB1 versus AMPK)
			COc1ccc2cc3[n+](cc2c1OC)CCc1cc2c(cc1-3)OCO2 [berberine]	did promote Raptor phosphorylation		
all activated AMPK	above 1 μM	did not protect against inactivation	CN(C)S(=O)(=O)c1ccc2c(c1)/C(=C/c1cc3c([nH]1)CCCC3)C(=O)N2 [SU6656]		still activated and increased Thr172 phosphorylation of AMPK	inhibition of LKB1 was less potent than that of AMPK
